In patent US8859541B2, “6-alkynylpyridines” (Boehringer Ingelheim International GmbH, priority 2012, dated 2014):

How the values were obtained:
cIAP1 BIR3 = biological target: T1, cIAP1 BIR3 (Homo sapiens, UniProt Q13490); assay: cIAP1 BIR3 binding assay (DELFIA), displacement of SMAC peptide; conditions: GST-fusion BIR3 domain (aa 256 to 363) 10 nM, SMAC peptide 10 nM; activity of the (S)-isomers
T1 construct: covering amino acids 256 to 363; cIAP1 BIR3; made in house; host or cells: E. coli
Method: Biological Methods XIAP BIR3 and cIAP1 BIR3 Binding Assays (DELFIA)
Peptide […]-Lys(Biotin), representing the N-terminus of mature human SMAC (SMAC peptide), was used as interaction partner in the protein-peptide interaction assay.
BIR3 domains (10 nM) were incubated with SMAC peptide (10 nM) in Assay Buffer (50 mM Tris, 120 mM NaCl, 0.1% BSA, 1 mM DTT, 0.05% TritonX100) for one hour at room temperature in the presence of inhibitiory compounds. The assay mixture was transferred to a strepatvidin coated plate and incubated for one hour at room temperature to allow binding of the biotinylated peptide and associated BIR3 domains to the plate. After several washing steps Eu labeled anti-GST antibody (e.g. Perkin Elmer DELFIA Eu-N1-antiGST AD0250) was added to detect BIR3 domain-SMAC peptide interactions according to Perkin Elmer's instructions. […] Time resolved Europium fluoresecence was measured in a Wallac Victor using Standard assay settings.
DELFIA assay results were plotted against compound concentrations and Software GraphPad Prizm was used to calculate half maximal inhibitory concentrations (IC50 values).

XIAP BIR3 = biological target: T2, XIAP BIR3 (Homo sapiens, UniProt P98170); assay: XIAP BIR3 binding assay (DELFIA), displacement of SMAC peptide; conditions: GST-fusion BIR3 domain (aa 241 to 356) 10 nM, SMAC peptide 10 nM; activity of the (S)-isomers
T2 construct: covering amino acids 241 to 356; XIAP BIR3; made in house; host or cells: E. coli
Method in brief: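 Each BIR3 domain (10 nM) incubated with biotinylated N-terminal SMAC peptide (10 nM) and compound for 1 h at room temp in Tris/NaCl buffer with BSA, DTT and Triton X-100. Captured on streptavidin plates; bound BIR3 detected by Eu-labelled anti-GST time-resolved fluorescence, giving IC50 values.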

T2 sequence (P98170 241-356): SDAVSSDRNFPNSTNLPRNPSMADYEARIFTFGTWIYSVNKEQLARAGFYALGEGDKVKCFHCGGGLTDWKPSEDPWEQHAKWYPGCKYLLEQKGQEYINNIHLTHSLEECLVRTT
T1 sequence (Q13490 256-363): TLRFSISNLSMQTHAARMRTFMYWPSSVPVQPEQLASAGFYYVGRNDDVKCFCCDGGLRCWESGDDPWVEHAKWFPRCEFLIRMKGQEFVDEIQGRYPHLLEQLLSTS

Structure (SMILES) | IC50 (cIAP1 BIR3) [nM] | IC50 (XIAP BIR3) [nM]
CNC(C)C(=O)Nc1ccc(-c2c(C)nc3ccccn23)c(C#Cc2ccnc3c(F)cccc23)n1 (centres unmarked) [Example 93, N-[6-[2-(8-fluoroquinolin-4-yl)-ethynyl]-5-(2-methyl-imidazo[1,2-a]pyridin-3-yl)-pyridin-2-yl]-2-(methylamino)-propanamide] | 1 | 198
CC(N)C(=O)Nc1cccc(C#Cc2ccc3cc[nH]c3c2)n1 (centres unmarked) [Example 234, 2-amino-N-[6-[2-(1H-indol-6-yl)ethynyl]pyridin-2-yl]propanamide] | 1230 | 2730
CNC(C)C(=O)Nc1ccc(-c2c(C)nc3ccccn23)c(C#Cc2cc3ccncc3s2)n1 (centres unmarked) [Example 50, 2-(methylamino)-N-[5-(2-methylimidazo[1,2-a]pyridin-3-yl)-6-(2-thieno[2,3-c]pyridin-2-ylethynyl)pyridin-2-yl]propan-amide] | 1 | 95
CC(N)C(=O)Nc1cccc(C#Cc2ccoc2)n1 (centres unmarked) [Example 240, 2-amino-N-[6-[2-(furan-3-yl)ethynyl]pyridin-2-yl]propanamide] | 1340 | 3020
CC(N)C(=O)Nc1cccc(C#Cc2cccnc2)n1 (centres unmarked) [Example 215, 2-amino-N-[6-(2-pyridin-3-ylethynyl)pyridin-2-yl]propanamide] | 985 | 9700
CNC(C)C(=O)Nc1ccc(-c2nnc(Cl)c3ccccc23)c(C#Cc2ccccc2)n1 (centres unmarked) [Example 184, N-[5-(4-chlorophthalazin-1-yl)-6-(2-phenylethynyl)pyridin-2-yl]-2-(methylamino)propanamide] | 17 | 138
CNC(C)C(=O)Nc1ccc(-c2ccc(OC)nc2OC)c(C#Cc2ccccc2)n1 (centres unmarked) [Example 126, N-[5-(2,6-dimethoxypyridin-3-yl)-6-(2-phenylethynyl)pyridin-2-yl]-2-(methylamino)propanamide] | 166 | 1010
CNC(C)C(=O)Nc1ccc(-c2c(C)nc3ccccn23)c(C#Cc2ccc(-n3ccnc3)cc2)n1 (centres unmarked) [Example 88, N-[6-[2-(4-imidazol-1-ylphenyl)ethynyl]-5-(2-methyl-imidazo[1,2-a]pyridin-3-yl)-pyridin-2-yl]-2-(methylamino)-propanamide] | 1 | 207
CNC(C)C(=O)Nc1ccc(-c2cccc3ccccc23)c(C#Cc2ccccc2)n1 (centres unmarked) [Example 130, 2-(methylamino)-N-[5-naphthalen-1-yl-6-(2-phenyl-ethynyl)pyridin-2-yl]propanamide] | 172 | 3200
CNC(C)C(=O)Nc1ccc(-c2c(C)nc(N3CCCC3)nc2C)c(C#Cc2ccc3ncccc3c2)n1 (centres unmarked) [Example 80, N-[5-(4,6-dimethyl-2-pyrrolidin-1-ylpyrimidin-5-yl)-6-(2-quinolin-6-ylethynyl)pyridin-2-yl]-2-(methylamino)propan-amide] | 1 | 1310
CNC(C)C(=O)Nc1ccc(-c2c(C)ncn2C)c(C#Cc2ccccc2)n1 (centres unmarked) [Example 195, N-[5-(3,5-dimethylimidazol-4-yl)-6-(2-phenylethynyl)pyridin-2-yl]-2-(methylamino)propanamide] | 4 | 269
CNC(C)C(=O)Nc1ccc(-c2c(C)nc(N(C)C)nc2C)c(C#Cc2ccc3c(ccc(=O)n3C)c2)n1 (centres unmarked) [Example 75, N-[5-[2-(dimethylamino)-4,6-dimethylpyrimidin-5-yl]-6-[2-(1-methyl-2-oxoquinolin-6-yl)-ethynyl]pyridin-2-yl]-2-(methyl-amino)propanamide] | 1 | 1670
CNC(C)C(=O)Nc1ccc(-c2c(C)nc3ccccn23)c(C#Cc2ccc3c(c2)OCC(=O)N3C)n1 (centres unmarked) [Example 33, 2-(methylamino)-N-[5-(2-methylimidazo[1,2-a]pyridin-3-yl)-6-[2-(4-methyl-3-oxo-1,4-benzoxazin-7-yl)ethynyl]-pyridin-2-yl]propanamide] | 1 | 277
